# Earlier results, collected in patent publication US9610269B2, “Method of treating a disease condition susceptible to baclofen therapy” (SUN PHARMA ADVANCED RESEARCH COMPANY LTD., priority 2010, dated 2017).
# What was measured:
# [1] = in vivo
# [2] = at the actual pH values
smiles,measurement,setting,value
"NCC(CC(=O)O)c1ccc(Cl)cc1 (stereo not shown) [baclofen, 4-amino-3-(p-chlorophenyl) butyric acid]",Plasma elimination half-life,[1],approximately 3.5 hours
same,fraction metabolized in the liver,[1],15%
same,serum concentration considered an effective concentration,[1],≥ 80 ng/mL
same,lipophilicity of the drug,[2],negligible
